Results taken from patent publication US20260002124A1, “ENHANCING NEURONAL DIFFERENTIATION OF VENTRAL MIDBRAIN NEURAL PROGENITOR CELLS” (Novo Nordisk A/S, priority 2022, published 2026).
“And” between values parts separate entries of the source, which are not always exact repeats. Equal entries are not always repeated.

Tests used:
Assay type in all cases: cell-based, human
[1] = tested on: ventral midbrain floor plate NSCs; test: Immunofluorescence staining after early administration and extended differentiation (DIV35); settings: early administration; IF staining, extended differentiation DIV35
Protocol: (§1) Following compound administration and flow cytometry analysis performed in FIGS. 2 and 3, all groups were differentiated for a further 11 days in vitro and then were fixed in 4% paraformaldehyde and stained with DAPI to identify all cell nuclei and primary antibodies against SOX2 (1:300), Ki-67 (1:250), LMX1A (1:3000), INA (1:200), tyrosine hydroxylase (TH; 1:500) and COL1A1 (1:300) followed by fluorescently labelled secondary antibodies. Images were acquired on an Olympus IX81 microscope using CellSens software. The immunofluorescence (IF) staining confirmed the flow cytometry results of FIG. 3 with extended differentiation showing that treatment with a NOTCHi alone reduced, compared to untreated controls, the amount of NSCs identified by SOX2 (FIG. 4A-D) and proliferative cells identified by KI67 (FIG. 5B,D) while maintaining the amount of neuronal cells identified by INA (FIG. 5A,C).
(§2) Cells were fixed in 4% paraformaldehyde (Alfa Aesar) for 10 minutes at room temperature. Unspecific antibody binding was blocked by incubating cells with PADT buffer; phosphate-buffered saline (PBS) without Ca2+ and Mg2+ (Gibco) with 0.02% sodium azide solution (Ampliqon), 0.5% Triton X-100 (Sigma), and 5% Donkey serum (Jackson Labs) for 30 minutes, followed by overnight incubation with primary antibodies (see Table X) at 4° C. The cells were washed 3 times with PBS without Ca2+ and Mg2+, blocked with PADT buffer for 15 minutes, and incubated with fluorophore-conjugated secondary antibodies (see Table X) for 2 hours at room temperature, protected from light. The cells were then counterstained with DAPI (10 μg/mL) for 5 minutes at room temperature, washed 3 times with PBS without Ca2+ and Mg2+, and stored at 4° C. in PBS without Ca2+ and Mg2+ supplemented with 0.02% sodium azide. Images were captured with a Zeiss Axio Observer microscope equipped with an Axiocam 512 camera and ZEN 3.2 (Pro) software (Zeiss).

[2] = tested on: ventral midbrain floor plate NSCs; test: Late in vitro administration of MEKi and/or NOTCHi (DIV22-29), FCM/ICC marker expression
Protocol: (§3) hESCs were differentiated to ventral midbrain neurons according to an established protocol (Nolbrant et al., 2017; Kirkeby et al., 2017). In brief, hESC were grown to 70-90% confluency, then disassociated with 0.5 mM EDTA. The cells were seeded at 10^4 cells/cm^2 in cell culture flasks or plates coated with human laminin-111 (1.2 μg/cm^2; BioLamina) and immediately put into contact with differentiation media. The cells were exposed to N2-based media from days in vitro (DIV) 0-8; 50% DMEM/F12+Glutamax (Gibco), 50% Neurobasal (Gibco), 1% N2 supplement CTS (Thermo Fisher Scientific), 5% GlutaMAX (Thermo Fisher Scientific), 0.2% P-S (Thermo Fisher Scientific) and supplemented with SMAD inhibitors SB431542 (10 μM; Miltenyi Biotec), Noggin (100 ng/mL; Miltenyi Biotec) for neural induction, Sonic Hedgehog C24II (SHH; 500 ng/mL; Miltenyi Biotec) for ventral fate, GSK3B inhibitor CHIR99021 (CHIR; 0.5-0.6 μM; Miltenyi Biotec) to promote caudalization. N2-based media was supplemented with fibroblast growth factor 8b (FGF8b; 100 ng/mL; Miltenyi Biotec) from DIV9-11. At DIV11, the cells were dissociated with accutase (Thermo Fisher Scientific) and seeded at 0.8×10^6 cells/[…] in a cell culture flask or plate coated with human laminin-111 (1.2 μg/cm^2) in DIV11-16 media (Neurobasal, 2% B27 supplement without vitamin A CTS (Thermo Fisher Scientific), 5% GlutaMAX, 0.2% P-S and supplemented with FGF8b (100 ng/mL), L-ascorbic acid (AA; 200 μM; Sigma), human Brain Derived Neurotrophic Factor (BDNF; 20 ng/mL; Miltenyi Biotec)) supplemented with Y-27632 (Miltenyi Biotec) at 10 μM. At day in vitro (DIV) 16, the cells were dissociated with accutase and either cryopreserved, or re-seeded in cell culture flasks/plates coated with poly-L-ornithine (0.002%) and Laminin-521 (1.5 μg/cm^2) in B27 media supplemented with BDNF (20 ng/mL), GDNF (20 ng/mL), L-ascorbic acid (200 μM), dcAMP (500 μM), DAPT (10 μM), and Y-27632 (10 μM) for extended in vitro culture allowing further differentiation and maturation of ventral midbrain neural stem cells into neurons.
(§4) Ventral midbrain dopaminergic (vmDA) progenitor cells were generated from hESCs in 2D in vitro culture as described in Example 1 and using reagents described in Table 1. At various days after initiating the differentiation the cell culture was dissociated into a single cell suspension using Accutase, counted on a NucleoCounter NC-200 and collected in N2 media (CTS™ Neurobasal™ medium supplemented with 1% CTS™ N-2 supplement). Dead cells were labelled using a LIVE/DEAD™ Fixable Near-IR Dead Cell Stain Kit. The cells were then resuspended in B27 media (CTS™ Neurobasal™ medium supplemented with 1% B-27™ supplement without vitamin A, 2 mM GSutaMAX™, 60 U/mL Penicillin-Streptomycin, 10 μM ROCK inhibitor). Cells were then fixed and permeabilized using the BD Transcription Factor Buffer Set (BD Biosciences) according to the manufacturer's instructions. The fixed cells were then stained with fluorescently conjugated antibodies, and the samples acquired on a BD LSR Fortessa or B FACSymphony (BD Biosciences). The fcs files were exported and analyzed in FlowJo 10.5.03.
(§5) To determine whether a cell was considered positive in its protein expression of a marker, gates were set as routinely done in the field at the edge of the fluorescent signal of a negative control sample. Examples of negative control samples used included unstained controls, fluorescence minus one (FMO) controls and most preferably biological negative control samples; all cells present above these threshold gates when experimental samples were run were considered positive. Antibodies: FOXA2 (1:320, Miltenyi), OTX2 (1:320, Miltenyi), SOX2 (1:40, B), LMXTA (1:2500, Novo Nordisk production), […] (1:40, AtlasAntibodies), ASCL1 (1:2500, Mitlenyi), INA (1:3000, AtlasAntibodies). […]

[3] = tested on: ventral midbrain floor plate NSCs; test: Early in vitro administration of MEKi and/or NOTCHi (DIV16-22), flow cytometry marker expression
Protocol: as §3, §4, §5

VM NPCs = test: FCM profile of VM neural cells at DIV22 after earlier NOTCHi treatment DIV16-22
Protocol: as §3, §4, §5

[4] = tested on: ventral midbrain floor plate NSCs; test: Immunofluorescence staining after late administration and extended differentiation (DIV40); settings: late administration; IF staining, extended differentiation DIV40
Protocol: as §1, with “Figure,” for “FIGS. 2 and 3,”, “(1:1000),” for “(1:3000), INA (1:200),”, “results” for “results of FIG. 3”, “12A-D)” for “4A-D)”, “13B,D)” for “5B,D)”, “13A,C).” for “5A,C).”
as §2

[5] = late administration DIV22-29, FCM/ICC, % of total cells, replicates #1-#4
[6] = late administration, result in words
[7] = early treatment DIV16-22, % of total viable cells, replicates #1-#4
[8] = early treatment, result in words
[9] = DIV22 after NOTCHi (DAPT) DIV16-22 every 48-72 hrs, flow cytometry, replicates #1-#11
[10] = DIV22 after NOTCHi DIV16-22, Mean of #1-#11

## C[C@H](NC(=O)Cc1cc(F)cc(F)c1)C(=O)NC(C(=O)OC(C)(C)C)c1ccccc1 (stereo partly shown) [NOTCHi]
[1]
  amount of NSCs identified by SOX2 compared to untreated controls: reduced
  amount of neuronal cells identified by INA: maintaining
  expression of ventral midbrain lineage marker LMX1A: did not prevent
  formation of dopamine neurons (TH): did not prevent
  proliferative cells identified by KI67 compared to untreated controls: reduced
  proportion of stromal COL1A1 cells compared to control untreated cultures: dramatically reduced
[2]; [5]
  FOXA2 expressing cells: 81.8% and 90.2% and 68% and 92.2%
  INA expressing cells (neuronal marker): 35.4% and 61.5% and 74.1%
  Ki67 expressing cells (proliferative marker): 21.3% and 1.65% and 3.87% and 2.98%
  LMX1A expressing cells: 95.4% and 75.4% and 91.8%
  SOX2 expressing cells (NSC marker): 62.1% and 21.9% and 63.7% and 43.6%
[2]; [6]
  expression of NSC marker SOX2 compared to controls: downregulated
  expression of proliferative marker KI67 compared to controls: downregulated
[3]; [7]
  FOXA2 expressing cells: 85.3% and 72.4% and 93.2%
  Ki67 expressing cells (proliferative marker): 16.6% and 18.6% and 17.7%
  LMX1A expressing cells: 88.4% and 77.2% and 94.5%
  SOX2 expressing cells (NSC marker): 59.6% and 57.3% and 65.7%
[3]; [8]
  expression of NSC marker SOX2 compared to controls: downregulated
  expression of proliferative marker KI67 compared to controls: downregulated
VM NPCs; [9]
  ASCL1 expressing cells: 41.1% and 41.7% and 45.8% and 16.2% and 17.3% and 25.6% and 50.4% and 57.1% and 40.5% and 51.8% and 36.0%
  FOXA2 expressing cells: 69.7% and 76.2% and 82.7% and 78.0% and 75.5% and 35.2% and 85.4% and 98.2% and 82.1% and 94.9% and 67.6%
  INA expressing cells: 30.5% and 19.2% and 22.4% and 13.8% and 13.3% and 32.0% and 23.6% and 34.2% and 19% and 45.6% and 18.3%
  INA+/SOX2− cells: 13.8% and 4.7% and 6.2% and 2.6% and 5.0% and 6.0% and 7.3% and 13.6% and 5.7% and 20.1% and 7.0%
  Ki67 expressing cells: 6.4% and 8.1% and 9.7% and 7.8% and 5.2% and 19.8% and 5.9% and 4.8% and 6.0% and 6.6% and 6.1%
  SOX2 expressing cells: 70.9% and 86.3% and 88.3% and 77.2% and 78.5% and 76.4% and 72% and 70.5% and 64.7% and 65.7% and 69.5%
VM NPCs; [10]
  ASCL1 expressing cells, Mean: 38.5%
  FOXA2 expressing cells, Mean: 76.9%
  INA expressing cells, Mean: 24.7%
  INA+/SOX2− cells, Mean: 8.4%
  Ki67 expressing cells, Mean: 7.9%
  SOX2 expressing cells, Mean: 74.5%
[4]
  amount of NSCs identified by SOX2 compared to untreated controls: reduced
  amount of neuronal cells identified by INA: maintaining
  expression of ventral midbrain lineage marker LMX1A: did not prevent
  formation of dopamine neurons (TH): did not prevent
  proliferative cells identified by KI67 compared to untreated controls: reduced
  proportion of stromal COL1A1 cells compared to control untreated cultures: dramatically reduced
